# How the values were obtained:
# Type in all cases: cell-based
# PR_10 family = experiment: qRT-PCR expression of induced resistance gene in pine tree callus; conditions: for Expression of induced resistance gene, PR_10 family: 24 hours
# Procedure, shortened: (§1)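 Pine callus (100 mg) in LM liquid medium treated with candidate inducers at 200 µg/mℓ final, applied to the surface or sprayed, shaken 50 rpm at 25 °C in the dark for 24 h (acibenzolar-S-methyl also 1, 7 or 14 days). Gene expression by qRT-PCR on callus RNA, with elongation factor_1 alpha as reference.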
# PR_3 family class 1 = experiment: as above; conditions: for Expression of induced resistance gene, PR_3 family class 1: 24 hours
# PR_3 family class 4 = experiment: as above; conditions: for Expression of induced resistance gene, PR_3 family class 4: 24 hours
# Procedure, shortened: as §1
# Cytochrome_P450 = experiment: as above; conditions: for Expression of induced resistance gene, Cytochrome_P450: 24 hours
# Experimental: For in vitro analysis of induced resistance, the expression of PR genes and other plant defense-related genes was determined, which are evolved in various defense mechanisms including induced resistance. The primers of sixteen induced resistance-related genes of pine tree used in this invention were listed in the below and elongation factor_1 alpha were used as a reference gene. […] The primer list of defense resistance-related genes
# (§2) After the treatment with 200 µg / mℓ of candidates of the selected induced resistance material, expression of the induced resistance-related gene in pine callus was determined by qRT-PCR using the primer pairs of defense resistance-related genes in Table 4. As a candidate group of an induced resistance material in pine tree, acibenzolar-S-methyl (ASM), TDL (Tiadinil), ITL (Isotianil), PBZ (Probenzole), AZO (Azoxystrobin), VMA (Validamycin A), MeJA (Methyl jasmonate), BABA (DL-3-aminobutyric acid), 2,3-BDO (2,3-Butanediol), GABA (r-Aminobutyric acid), glucan (Glucan), ER (Ergosterol), and AZA (Azelaic acid) were used. For the in vitro analysis of the expression of induced resistance gene in pine callus, the selected induced resistance materials were applied with 500 µℓ of LM liquid medium on a surface of pine tree callus (100 mg) in 12-well microplate to give final concentration of 200 µg/mℓ. Then, the callus surface was sufficiently reacted for 24 hours with the candidate of pine tree induced resistance material by shaking at 50 rpm in a 25 °C shaking incubator under dark condition. RNAs were extracted from the callus after completion of the reaction with an induced resistance material, followed by synthesis of cDNAs. Then, by carrying out qRT-PCR, the expression of induced resistance genes was determined.
# Thus, the following tests were carried out using acibenzolar-S-methyl only. Expression of the induced resistance genes at different culture time after the chemical treatment was examined. For the in vitro assay, LM medium containing pine tree callus was treated with acibenzolar-S-methyl at concentration of 200 µg / mℓ, followed by reaction for 1 day, 7 days, or 14 days in a 25°C shaking incubator under dark condition. RNAs were extracted from the callus after the reaction followed by synthesis of cDNAs. Then, by carrying out qRT-PCR, the expression of the induced resistance genes was determined. Depending on reaction time after the treatment, i.e., after 1 day, 7 days, or 14 days, the expression of the obtained induced resistance genes was examined. […]
# For the surface treatment (spraying treatment) of pine tree callus, 100 mg of the pine tree callus were dunked in 500 µℓ LM liquid medium and 500 µℓ of 400 µg/mℓ acibenzolar-S-methyl were sprayed (i.e., sprayed 5 times, 100 µℓ for each spraying, 200 µg/mℓ) on the callus surface. Then, the pine callus sprayed with acibenzolar-S-methyl was reacted for 24 hours by shaking at 50 rpm in a 25°C shaking incubator under dark condition. After the completion of the 24-hour reaction, RNAs were extracted from the callus followed by synthesis of cDNAs. Then, by carrying out qRT-PCR, expression of the induced resistance gene was determined.
# [1] = system: induced resistance-related genes; experiment: qRT-PCR expression of induced resistance genes in pine tree callus, overall statement; conditions: 200 µg/mℓ
# Experimental: For in vitro analysis of induced resistance, the expression of PR genes and other plant defense-related genes was determined, which are evolved in various defense mechanisms including induced resistance. The primers of sixteen induced resistance-related genes of pine tree used in this invention were listed in the below and elongation factor_1 alpha were used as a reference gene. [Table 4] The primer list of defense resistance-related genes
# as §2, with “determined. [Table 5] Expression of induced resistance gene in pine tree callus by TDL, PBZ, ASM, ITL, AZO, VMA, glucan, and AZA” for “determined.”
# Heat shock 70 = experiment: qRT-PCR expression of induced resistance gene in pine tree callus; conditions: concentration series, 2 µg/mℓ
# Xyloglucan = experiment: as above; conditions: concentration series
# [2] = 200 µg/mℓ, Direct supplying as a medium component
# [3] = concentration series, 200 µg/mℓ
smiles,measurement,setting,value
"CC(N)CC(=O)O (racemic) [BABA, DL-3-aminobutyric acid]","Expression of induced resistance gene, PR_10 family",PR_10 family; 200 µg/mℓ,1.23
same,"Expression of induced resistance gene, PR_3 family class 1",PR_3 family class 1; 200 µg/mℓ,0.81
same,"Expression of induced resistance gene, PR_3 family class 4",PR_3 family class 4; 200 µg/mℓ,0.51
same,"Expression of induced resistance gene, Cytochrome_P450",Cytochrome_P450; 200 µg/mℓ,0.37
"C=CCOC1=NS(=O)(=O)c2ccccc21 [PBZ, Probenzole]","Expression of induced resistance gene, PR_10 family",PR_10 family; 200 µg/mℓ,2.08
same,"Expression of induced resistance gene, PR_3 family class 1",PR_3 family class 1; 200 µg/mℓ,1.04
same,"Expression of induced resistance gene, PR_3 family class 4",PR_3 family class 4; 200 µg/mℓ,0.74
same,"Expression of induced resistance gene, Cytochrome_P450",Cytochrome_P450; 200 µg/mℓ,1.06
"CO/C=C(/C(=O)OC)c1ccccc1Oc1cc(Oc2ccccc2C#N)ncn1 [AZO, Azoxystrobin]","Expression of induced resistance gene, PR_10 family",PR_10 family; 200 µg/mℓ,1.4
same,"Expression of induced resistance gene, PR_3 family class 1",PR_3 family class 1; 200 µg/mℓ,1.11
same,"Expression of induced resistance gene, PR_3 family class 4",PR_3 family class 4; 200 µg/mℓ,1.01
same,"Expression of induced resistance gene, Cytochrome_P450",Cytochrome_P450; 200 µg/mℓ,1.17
"N#Cc1ccccc1NC(=O)c1snc(Cl)c1Cl [ITL, Isotianil]","Expression of induced resistance gene, PR_10 family",PR_10 family; 200 µg/mℓ,1
same,"Expression of induced resistance gene, PR_3 family class 1",PR_3 family class 1; 200 µg/mℓ,0.95
same,"Expression of induced resistance gene, PR_3 family class 4",PR_3 family class 4; 200 µg/mℓ,0.81
same,"Expression of induced resistance gene, Cytochrome_P450",Cytochrome_P450; 200 µg/mℓ,0.98
"CSC(=O)c1cccc2nnsc12 [ASM, acibenzolar-S-methyl]","Expression of induced resistance gene, PR_10 family",PR_10 family; 200 µg/mℓ,1.71
same,"Expression of induced resistance gene, PR_10 family",PR_10 family; [2],10.63
same,"Expression of induced resistance gene, PR_10 family","PR_10 family; 200 µg/mℓ, Spraying",1.71
same,"Gene expression level, PR_10 family","PR_10 family; 200 µg/mℓ, After 1 day",8.57
same,"Gene expression level, PR_10 family","PR_10 family; 200 µg/mℓ, After 7 days",0.51
same,"Gene expression level, PR_10 family","PR_10 family; 200 µg/mℓ, After 14 days",0.64
same,"Gene expression level, PR_10 family","PR_10 family; concentration series, 2 µg/mℓ",0.8293
same,"Gene expression level, PR_10 family","PR_10 family; concentration series, 20 µg/mℓ",1.11
same,"Gene expression level, PR_10 family",PR_10 family; [3],1.094
same,"Expression of induced resistance gene, PR_3 family class 1",PR_3 family class 1; 200 µg/mℓ,2.04
same,"Expression of induced resistance gene, PR_3 family class 1",PR_3 family class 1; [2],2.85
same,"Expression of induced resistance gene, PR_3 family class 1","PR_3 family class 1; 200 µg/mℓ, Spraying",2.04
same,"Gene expression level, PR_3 family class 1","PR_3 family class 1; 200 µg/mℓ, After 1 day",2.85
same,"Gene expression level, PR_3 family class 1","PR_3 family class 1; 200 µg/mℓ, After 7 days",1.38
same,"Gene expression level, PR_3 family class 1","PR_3 family class 1; 200 µg/mℓ, After 14 days",0.29
same,"Gene expression level, PR_3 family class 1","PR_3 family class 1; concentration series, 20 µg/mℓ",3.506
same,"Gene expression level, PR_3 family class 1",PR_3 family class 1; [3],3.605
same,"Expression of induced resistance gene, PR_3 family class 4",PR_3 family class 4; 200 µg/mℓ,3.86
same,"Expression of induced resistance gene, PR_3 family class 4",PR_3 family class 4; [2],11.96
same,"Expression of induced resistance gene, PR_3 family class 4","PR_3 family class 4; 200 µg/mℓ, Spraying",3.86
same,"Gene expression level, PR_3 family class 4","PR_3 family class 4; 200 µg/mℓ, After 1 day",11.96
same,"Gene expression level, PR_3 family class 4","PR_3 family class 4; 200 µg/mℓ, After 7 days",7.67
same,"Gene expression level, PR_3 family class 4","PR_3 family class 4; 200 µg/mℓ, After 14 days",0.86
same,"Gene expression level, PR_3 family class 4","PR_3 family class 4; concentration series, 2 µg/mℓ",32.22
same,"Gene expression level, PR_3 family class 4","PR_3 family class 4; concentration series, 20 µg/mℓ",42.52
same,"Gene expression level, PR_3 family class 4",PR_3 family class 4; [3],24.93
same,"Expression of induced resistance gene, Cytochrome_P450",Cytochrome_P450; 200 µg/mℓ,1.71
same,"Expression of induced resistance gene, Cytochrome_P450",Cytochrome_P450; [2],9.99
same,"Expression of induced resistance gene, Cytochrome_P450","Cytochrome_P450; 200 µg/mℓ, Spraying",1.71
same,"Gene expression level, Cytochrome_P450","Cytochrome_P450; 200 µg/mℓ, After 1 day",7.21
same,"Gene expression level, Cytochrome_P450","Cytochrome_P450; 200 µg/mℓ, After 7 days",0.85
same,"Gene expression level, Cytochrome_P450","Cytochrome_P450; 200 µg/mℓ, After 14 days",0.04
same,"Gene expression level, Cytochrome_P450","Cytochrome_P450; concentration series, 2 µg/mℓ",1.231
same,"Gene expression level, Cytochrome_P450","Cytochrome_P450; concentration series, 20 µg/mℓ",1.173
same,"Gene expression level, Cytochrome_P450",Cytochrome_P450; [3],1.231
same,expression of induced resistance-related genes is induced overall,[1],≥ 2 times
same,expression of most PR genes was enhanced,[1],≥ 2 times
same,"Gene expression level, Heat shock 70",Heat shock 70,22.47
same,"Gene expression level, Xyloglucan",Xyloglucan; 2 µg/mℓ,7.013
same,"Gene expression level, Xyloglucan",Xyloglucan; 20 µg/mℓ,5.389
"CC/C=C\CC1C(=O)CCC1CC(=O)OC (centres unmarked) [MeJA, Methyl jasmonate]","Expression of induced resistance gene, PR_10 family",PR_10 family; 200 µg/mℓ,1.34
same,"Expression of induced resistance gene, PR_3 family class 1",PR_3 family class 1; 200 µg/mℓ,0.54
same,"Expression of induced resistance gene, PR_3 family class 4",PR_3 family class 4; 200 µg/mℓ,0.79
same,"Expression of induced resistance gene, Cytochrome_P450",Cytochrome_P450; 200 µg/mℓ,0.3
"OCC1=C[C@@H](N[C@H]2C[C@H](CO)[C@@H](O[C@H]3O[C@@H](CO)[C@H](O)[C@@H](O)[C@@H]3O)[C@H](O)[C@H]2O)[C@H](O)[C@@H](O)[C@@H]1O [VMA, Validamycin A]","Expression of induced resistance gene, PR_10 family",PR_10 family; 200 µg/mℓ,1.56
same,"Expression of induced resistance gene, PR_3 family class 1",PR_3 family class 1; 200 µg/mℓ,1.67
same,"Expression of induced resistance gene, PR_3 family class 4",PR_3 family class 4; 200 µg/mℓ,2.95
same,"Expression of induced resistance gene, Cytochrome_P450",Cytochrome_P450; 200 µg/mℓ,1.17
same,expression of induced resistance-related genes is induced overall,[1],≥ 2 times
"CC(C)[C@@H](C)/C=C/[C@@H](C)[C@H]1CC[C@H]2C3=CC=C4C[C@@H](O)CC[C@]4(C)[C@H]3CC[C@]12C [ER, Ergosterol]","Expression of induced resistance gene, PR_10 family",PR_10 family; 200 µg/mℓ,1.21
same,"Expression of induced resistance gene, PR_3 family class 1",PR_3 family class 1; 200 µg/mℓ,1.06
same,"Expression of induced resistance gene, PR_3 family class 4",PR_3 family class 4; 200 µg/mℓ,0.81
same,"Expression of induced resistance gene, Cytochrome_P450",Cytochrome_P450; 200 µg/mℓ,1.06
"NCCCC(=O)O [GABA, r-Aminobutyric acid]","Expression of induced resistance gene, PR_10 family",PR_10 family; 200 µg/mℓ,1.57
same,"Expression of induced resistance gene, PR_3 family class 1",PR_3 family class 1; 200 µg/mℓ,3.07
same,"Expression of induced resistance gene, PR_3 family class 4",PR_3 family class 4; 200 µg/mℓ,8.75
same,"Expression of induced resistance gene, Cytochrome_P450",Cytochrome_P450; 200 µg/mℓ,2.41
same,expression of induced resistance-related genes is induced overall,[1],≥ 2 times
"O=C(O)CCCCCCCC(=O)O [AZA, Azelaic acid]","Expression of induced resistance gene, PR_10 family",PR_10 family; 200 µg/mℓ,1.16
same,"Expression of induced resistance gene, PR_3 family class 1",PR_3 family class 1; 200 µg/mℓ,1.12
same,"Expression of induced resistance gene, PR_3 family class 4",PR_3 family class 4; 200 µg/mℓ,1.16
same,"Expression of induced resistance gene, Cytochrome_P450",Cytochrome_P450; 200 µg/mℓ,1.05
"Cc1ccc(NC(=O)c2snnc2C)cc1Cl [TDL, Tiadinil]","Expression of induced resistance gene, PR_10 family",PR_10 family; 200 µg/mℓ,1.19
same,"Expression of induced resistance gene, PR_3 family class 1",PR_3 family class 1; 200 µg/mℓ,0.82
same,"Expression of induced resistance gene, PR_3 family class 4",PR_3 family class 4; 200 µg/mℓ,1.22
same,"Expression of induced resistance gene, Cytochrome_P450",Cytochrome_P450; 200 µg/mℓ,0.91
"CC(O)C(C)O (centres unmarked) [2,3-BDO, 2,3-Butanediol]","Expression of induced resistance gene, PR_10 family",PR_10 family; 200 µg/mℓ,0.86
same,"Expression of induced resistance gene, PR_3 family class 1",PR_3 family class 1; 200 µg/mℓ,2.78
same,"Expression of induced resistance gene, PR_3 family class 4",PR_3 family class 4; 200 µg/mℓ,0.33
same,"Expression of induced resistance gene, Cytochrome_P450",Cytochrome_P450; 200 µg/mℓ,0.88
